System: TPA induced ear inflammation
Test: 12-O-Tetradecanoylphorbol-13-Acetate (TPA) induced ear inflammation in mice
Assay type: in vivo, Male C57BL/6 mice
Details: for dose dependence of efficacy: topical test formulation
Protocol: Efficacy of the test formulations was determined in studies using 12-O-Tetradecanoylphorbol-13-Acetate (TPA) induced ear inflammation in mice. Excessive proliferation of keratinocytes is a characteristic of psoriasis, and this cell type is a well reported target of therapy for this disease. In the present study, chronic skin inflammation was induced by repeated topical application of TPA, which is recognized by prolonged skin reaction & epidermal hyperplasia. The animal model used was Male C57BL/6 mice 6 to 8 weeks of age. Protocol: • a) Animals were randomized based on body weight and divided into six different groups consisting of 8 animals. • b) 20 μL of TPA solution containing 2 μg of TPA in vehicle (2% DMSO and 98% methanol) was applied topically on both ventral and dorsal side (10 μL each side) of the right ear of all the animals except group Group G1 on day 0, 2, 4, 7 and 9. • c) Group G1 and Group G2 were topically treated with placebo gel formulation on right ear. • d) Groups G3, G4 and G5 were topically treated with test compositions comprising apremilast (2% w/w, 4% w/w and 10% w/w concentration). • e) Group G6 was topically treated with 0.1% Betamethasone valerate cream. • f) All the formulations were uniformly applied, 25 mg each (50 mg per animal), in anterior and posterior region of the right ear daily from day 0 to day 10.

What does the source list for CCOc1cc([C@@H](CS(C)(=O)=O)N2C(=O)c3cccc(NC(C)=O)c3C2=O)ccc1OC [apremilast, N-[2-[(1S)-1-(3-ethoxy-4-methoxyphenyl)-2-(methylsulfonyl)ethyl]-2,3-dihydro-1,3-dioxo-1H-isoin-dol-4-yl]acetamide]?
efficacy against ear inflammation (daily topical application of test formulation on right ear, day 0 to day 10, tested concentrations 2%, 4% and 10% apremilast): effective against ear inflammation; reduction on ear edema (topical test formulation containing 2% apremilast): poor reduction on ear edema which tapered off by day-9; dose dependence of efficacy (10% concentration of apremilast): saturation of efficacy; dose dependence of efficacy (between 2% and 4% apremilast): Dose-dependent increase in efficacy

Source: US20190374508A1, “THERAPEUTIC TOPICAL COMPOSITIONS OF APREMILAST” (SARUDBHAVA FORMULATIONS PRIVATE LIMITED, priority 2017, published 2019)
